The record followed here is US11266715B2, “C3A receptor agonists for use against ischemic brain injury, stroke, traumatic brain injury, spinal cord injury and neurodegenerative disorders” (priority 2016, dated 2022).

This experiment has as its system mice subjected to neonatal HI injury. The experiment in a line: Cue-induced fear conditioning after neonatal HI injury, 7 days intranasal treatment. The format is in vivo, mouse. Here is the method:
In the long-term study (7 days of intranasal treatment), […] of wild-type (WT) and C3aR^−/− mice subjected to neonatal HI injury and treated with either C3a or PBS were used; WT HI-C3a (n=5), WT HI-PBS (n=8), C3aR^−/− HI-C3a (n=7), C3aR^−/− HI-PBS (n=8). These mice were tested in a cue-induced fear conditioning test at P50 and brains were collected at P51 (FIG. 7A).
Neonatal HI injury was induced on postnatal day 9 (P9), as previously described with modifications for mice (Hedtjärn et al., 2002; Rice et al., 1981; Sheldon et al., 1998). Mice were anesthetized with 3.5% isoflurane (Baxter Medical, Kista, Sweden) for induction and 1.5% thereafter, in 1:1 oxygen and nitrous oxide. The left common carotid artery was dissected and permanently ligated with a prolene suture (6.0). […]
Cue-induced fear conditioning with a shock-paired tone and light cue was performed on P49 and P50 as previously described (Järlestedt et al., 2011). […] Freezing behaviour, a defensive response to a perceived threat, was defined as a complete lack of movement and quantified by scoring freezing behaviour (on video footage) as present or absent once every 10 s for 2 min. […] On P50, animals were again placed in the conditioning box and freezing behaviour was measured for 2 min. Following this, the shock-paired tone and light were presented for 30 s and freezing behaviour was then measured again for 2 min. […]

As to “C3a: Purified human C3a peptide (Complement Technologies), C3a receptor agonist, amino acid sequence SEQ ID NO: 1”, the “extent of freezing, C3a vs PBS” value (C3aR−/− mice, same protocol) is “did not differ”. Besides, the “freezing behavior after the conditioned cue vs HI PBS-treated mice” value (WT mice, intranasal C3a once daily 7 days from 1 h after HI, p<0.05) is recorded as “significantly increased freezing behavior”.
